Measured values taken from ChEMBL document CHEMBL1123455, “Conformational effects on the activity of drugs. 11. Stereostructural models for the direct activation of the alpha- and beta-adrenergic receptor” (J Med Chem, 1986).

Legend:
[1] = molecular target: T1, Adrenergic receptor beta (Homo sapiens) (UniProt P08588+P07550+P13945); conditions: Cavia porcellus
Description: Compound was tested for beta adrenergic receptor activity in isolated guinea pig atria

[2] = molecular target: T1, Adrenergic receptor beta (Homo sapiens); conditions: Cavia porcellus; remark: listed apart in the source
Description: Compound was tested for beta adrenergic receptor activity in isolated guinea pig tracheal strip

[3] = molecular target: T2, Adrenergic receptor alpha (Rattus norvegicus) (UniProt P15823+P23944+P43140+P22086+P19328+P22909); assay: Intrinsic activity against alpha-adrenoceptor in isolated rat tail artery
[4] = molecular target: T1, Adrenergic receptor beta (Homo sapiens); assay: Intrinsic activity beta adrenergic receptor in isolated guinea pig tracheal strip; conditions: Cavia porcellus; target entry is the homologue from another species
[5] = molecular target: T2, Adrenergic receptor alpha (Rattus norvegicus); assay: Intrinsic activity against alpha-adrenoceptor in isolated rat vas deferens; assay type: tissue-based
[6] = molecular target: T1, Adrenergic receptor beta (Homo sapiens); conditions: Cavia porcellus; remark: listed apart in the source
Description: Compound was tested for beta-adrenoceptor activity in isolated guinea pig atria

[7] = molecular target: T2, Adrenergic receptor alpha (Rattus norvegicus); conditions: Artery
Description: Compound was tested for alpha-adrenoceptor activity in isolated rat tail artery

[8] = molecular target: T2, Adrenergic receptor alpha (Rattus norvegicus); conditions: Vas deferens
Description: Compound was tested for alpha-adrenoceptor activity in isolated rat vas deferens

| SMILES | pD2 [1] | pD2 [2] | Intrinsic activity [3] | Intrinsic activity [5] | other results |
| --- | --- | --- | --- | --- | --- |
| CC(C)N[C@@H]1CCc2c(ccc(O)c2O)[C@H]1O | 7.56 | 8.41 |  |  |  |
| Oc1ccc(C2(O)CCCNC2)cc1O (centres undefined) |  |  | 1 | 0.95 | Intrinsic activity [4]: 0.77 |
| CC(C)N1CCCC(O)(c2ccc(O)c(O)c2)C1 (centres undefined) | 8.14 | 8.26 |  |  |  |
| NC[C@H](O)c1ccc(O)c(O)c1 |  | 6.04 | 1 | 1 | pD2 [6]: 6.5; pD2 [7]: 6.16; pD2 [8]: 4.96 |
| CC(C)N1CCOC(c2ccc(O)c(O)c2)C1 (centres undefined) | 5.74 | 6.34 |  |  |  |
| NC1CCc2c(ccc(O)c2O)[C@H]1O (some centres undefined) | 6.74 | 7.49 |  |  |  |
| Oc1ccc(C2CNCCO2)cc1O (centres undefined) |  |  | 0.92 | 0.91 |  |
